Reference: US20080200405A1, “Drug Resistance Reversal In Neoplastic Disease” (priority 2007, published 2008)
Counter-ions that a name gives are not always drawn.

Key:
[1] = test system: Doxorubicin resistant SaOS2 cells; test: Cancer cell viability (MTT) in the presence or absence of doxorubicin; format: cell-based, human; details: compound 50 ug/mL, 3 days
TNFα = test: Measurement of LPS Induced-TNFα in THP-1 Cells; format: cell-based, human; details: Homo sapiens, THP-1; for inhibition at 10 µM: compound 10 uM, 5 ng/mL LPS, read-out: Mean Percent Inhibition of TNF-alpha using 5 ng/mL LPS; for IC50: read-out: TNFalpha IC50
Experimental: The lipid peroxidation assay method of Ohkawa, H.; Ohishi, N.; Yaki, K. Anal. Biochem. 1979, 95, 351 was used to evaluate […]. […] […] Cells were collected and spun at 1500 g for 10 minutes. Supernatant was collected and analyzed for TNFα.
Mean Percent Inhibition of TNF-alpha by compounds of the present invention is set forth in Table B. TNF-alpha inhibition data is set forth in Table B-1. OT-551 was used in both native form and in the form of nanoparticles. […] Other nitrogenous heterocyclic species of the invention are expected to show similar improvement in efficacy when disposed in nanoparticulate form.

[2] = test system: bFGF-induced angiogenesis in the CAM model; test: bFGF (FGF2)-stimulated CAM model; format: in vivo, chicken; details: bFGF/FGF2 1 ug, 30 ug injected; for inhibition in vivo at 0.03 mg: Gallus gallus, read-out: % Inhibition ± SEM
Experimental: In vivo neovascularization was examined by the method previously described by Auerbach et al. (J. Dev. Biol. 41:391-394 (1974)). Ten-day old chicken embryos were purchased from Spafas, Inc. (Preston, Conn.) and were incubated at 37° C. with 55% relative humidity. In the dark, with the aid of a candling lamp, a small hole was punctured in the shell concealing the air sac with a hypodermic needle. A second hole was punctured in the shell on the broadside of the egg directly over an […] portion of the embryonic membrane, as observed during candling. An artificial air sac was created beneath the second hole by applying gentle vacuum to the first hole using a small rubber squeeze bulb. The vacuum caused the chorioallantoic membrane (CAM) to separate from the shell.
For inducing angiogenesis, sterile filter disks were saturated with bFGF (1 μg/ml) (Life Technologies, Gaithersburg, Md.) or other pro-angiogenesis factors and control disks were saturated with PBS without Calcium and Magnesium. Control disks were saturated with PBS without Calcium and Magnesium.
After 24-48 hr, 10-25 ul of test agent was injected intravenously or added topically into the CAM membrane. Eight-Ten eggs/treatment group were used.
The number of vessel branch points contained in a circular region equal to the area of a filter disk was counted for each section. Percent inhibition data are expressed as the quotient of the experimental value minus the negative control value divided by the difference between the positive control value and the negative control value. One image was counted in each CAM preparation, and findings from eight CAM preparations were analyzed for each treatment condition. In addition, each experiment was performed three times. The resulting angiogenesis index is the mean ±SEM (Standard Error of Measurement) of new branch points in each set of treatment. Statistical analysis of blood vessel branching patterns are performed by 1-way analysis of variance (ANOVA) comparing experimental with corresponding control groups. Statistical significance differences are assessed at P value of <0.05.
The CAM model protocol was modified to include stimulus with bFGF. The effect of injected OT 551 was assayed.
TP-H was applied to the CAM model study to determine its respective anti-angiogenesis effects according to the materials and methods provided in Example 1. Basic Fibroblast Growth Factor (bFGF) was used to induce angiogenesis in the CAM model.
Compounds were introduced via injection to the CAM model study to determine its respective anti-angiogenesis effects according to the materials and methods provided in Example 1. bFGF was used to induce angiogenesis in the CAM model.

Lipid peroxidation = Lipid peroxidation inhibition (method of Ohkawa); format: biochemical

Structure (SMILES)	melting point	IC50 (TNFα)	Mean OD (×10^−3), MTT viability ([1]; Dox. 10^−6 M (+))	Mean OD (×10^−3), MTT viability ([1]; absence of Dox. (−))	further results
CC1(C)CC(Oc2nsnc2N2CCN(C(=O)c3ccco3)CC2)CC(C)(C)N1O.Cl	198.1 °C (dec.)	–	–	–	–
CC1(C)CC(Oc2nc3ccccc3s2)CC(C)(C)N1O.Cl	160 °C (dec.)	–	–	–	–
CC1(C)C=C(COc2ccccc2N2CCOCC2)C(C)(C)N1O.Cl	155.7 °C (dec.)	–	–	–	–
COc1cc2c(cc1OC)CN(c1nsnc1OC1CC(C)(C)N(O)C(C)(C)C1)CC2.Cl	166.9 °C (dec.)	–	–	–	–
CC1(C)CC(Nc2nc3ccccc3s2)CC(C)(C)N1O.Cl	183 °C (dec.)	–	–	–	–
COc1ccc2nc(NC3CC(C)(C)N(O)C(C)(C)C3)sc2c1.Cl	220 °C (dec.)	–	–	–	–
CC1(C)c2ccc(Br)cc2C(C)(C)N1O.Cl	214.1 °C	–	–	–	–
CC1(C)C=C(CO)C(C)(C)N1O (as salt: chloride) [Compound 8, 2,5-dihydro-2,2,5,5-tetramethyl-1-hydroxyl-1H-pyrrol-3-yl)methanol hydrogen chloride]	141.9 °C (dec.)	–	–	–	–
CC1(C)CC(Oc2nsnc2OC2CC(C)(C)N(O)C(C)(C)C2)CC(C)(C)N1O (as salt: chloride) [Compound 14, 1-hydroxyl-4-(4-(2,2,6,6-tetramethylpiperidin-1-hydroxyl-4-yloxy)-1,2,5-thiadiazol-3-yloxy)-2,2,6,6-tetramethylpiperidine bis-hydrogen chloride]	216.2 °C (dec.)	–	–	–	–
CC1(C)CC(NS(C)(=O)=O)CC(C)(C)N1O (as salt: salt) [Compound 10, 1-hydroxy-4-methanesulfonamido-2,2,6,6-tetramethylpiperidine]	178.3 °C (dec.)	–	–	–	–
CC1(C)C=C(CO)C(C)(C)N1O [Compound 8, 2,5-dihydro-2,2,5,5-tetramethyl-1-hydroxyl-1H-pyrrol-3-yl)methanol hydrogen chloride]	–	20.3 µM	197.25 ×10^−3	392.50 ×10^−3	inhibition at 10 µM (TNFα): 55 ± 6%; inhibition in vivo at 0.03 mg [2]: 88.1 ± 7.6%; Branch pts ± SEM [2]: 57.8 ± 8.02
CC(C)(C)/[N+]([O-])=C/c1ccccc1 [Compound 17, α-phenyl-t-butyl nitrone, reference compound]	–	–	–	–	Lipid Peroxidation Inhibition, % Inhibition (Lipid peroxidation; 10 uM): 0.4%
CC1(C)C=C(CO)CC(C)(C)N1O.Cl [Compound 25]	–	–	325.00 ×10^−3	1137.50 ×10^−3	% Lipid Peroxidation inhibition (at 1 uM) (Lipid peroxidation): 42.0%
CC1(C)CC(CO)C(C)(C)N1O.Cl (stereo not shown) [Compound 33]	–	–	300.00 ×10^−3	1237.50 ×10^−3	% Lipid Peroxidation inhibition (at 1 uM) (Lipid peroxidation): 54.9%
CC1(C)COC(=O)C(C)(C)N1O.Cl [Compound 39, N-Hydroxyl-3,3,5,5-tetramethylmorpholin-2-one hydrochloride]	145 °C (dec.)	≥ 100 µM	311.00 ×10^−3	1201.00 ×10^−3	–
CC(C)c1nsnc1OCC1=CC(C)(C)N(O)C1(C)C.Cl [Compound 51]	155.7 °C	–	71.00 ×10^−3	1208.25 ×10^−3	–
CC1(C)CC(Oc2nsnc2N2CCSCC2)CC(C)(C)N1O.Cl [Compound 55, 4-(4-(1-hydroxy-2,2,6,6-tetramethylpiperidin-4-yloxy)-1,2,5-thiadiazol-3-yl)thiomorpholine hydrochloride]	218 °C (dec.)	–	285.75 ×10^−3	1037.25 ×10^−3	–
CC1(C)CC(O)(c2ccc(F)cc2)CC(C)(C)N1O.Cl [Compound 57, 4-(4-Fluorophenyl)-1-hydroxyl-2,2,6,6-tetramethylpiperidin-4-ol hydrochloride]	220 °C (dec.)	≥ 100 µM	426.25 ×10^−3	1078.50 ×10^−3	–
CC1(C)C=C(c2ccc(F)cc2)CC(C)(C)N1O [Compound 62, hydrochloride]	–	≥ 100 µM	40.25 ×10^−3	184.75 ×10^−3	–
O=C(O)c1cc(C(=O)O)c2c(n1)C(=O)C(=O)c1cc(C(=O)O)[nH]c1-2 [PQQ, pyrroloquinoline quinone, reference compound]	–	–	–	–	Lipid Peroxidation Inhibition, % Inhibition (Lipid peroxidation; 100 uM): 93.7%

More lines, main results first:

melting point	IC50 (TNFα)	Structure (SMILES)	Mean OD (×10^−3), MTT viability ([1]; Dox. 10^−6 M (+))	Mean OD (×10^−3), MTT viability ([1]; absence of Dox. (−))	further results
209.1 °C (dec.)	–	CC1(C)CC(Oc2nsnc2C(=O)O)CC(C)(C)N1O.Cl	–	–	–
174.9 °C (dec.)	–	Cc1c(C)c2c(c(C)c1O)CCC(C)(C(=O)NC1CC(C)(C)N(O)C(C)(C)C1)O2.Cl (stereo not shown)	–	–	–
197 °C (dec.)	–	CC(C)(C)OC(=O)c1nsnc1OC1CC(C)(C)N(O)C(C)(C)C1.Cl	–	–	–
179.2 °C (dec.)	–	CC1(C)CC(Oc2nsnc2C#N)CC(C)(C)N1O (as salt: hydrochloride) [Compound 45]	–	–	–
155.5 °C (dec.)	–	CC1(C)CC(O)C(C)(C)N1O (stereo not shown) (as salt: salt) [Compound 7, 2,2,5,5-Tetramethyl-pyrrolidine-1,3-diol]	–	–	–
138.5 °C (dec.)	18.9 µM	CC1(C)CC(O)C(Br)C(C)(C)N1O (stereo not shown) [Compound 9, 3-Bromo-2,2,6,6-tetramethyl-piperidine-1,4-diol]	234.75 ×10^−3	509.00 ×10^−3	inhibition at 10 µM (TNFα): 48 ± 14%; inhibition in vivo at 0.03 mg [2]: 82.2 ± 6.7%; Branch pts ± SEM [2]: 58.4 ± 6.52
–	4 µM	CC1(C)C=C(CC2CNCCO2)C(C)(C)N1O.Cl.Cl (stereo not shown) [Compound 36, ((1-hydroxy-2,5-dihydro-2,2,5,5-tetramethyl-1H-pyrrol-3-yl)methyl)morpholine bis-hydrogen chloride]	297.00 ×10^−3	1110.75 ×10^−3	–
–	≥ 100 µM	CC1(C)CC(=O)C(C)(C)N1O.Cl [Compound 37, 1-hydroxy-2,2,5,5-tetramethylpyrrolidin-3-one hydrogen chloride]	366.25 ×10^−3	1329.75 ×10^−3	–
187 °C (dec.)	0.9 µM	CCCCC1(O)CC(C)(C)N(O)C(C)(C)C1.Cl [Compound 41, 1,4-dihydroxy-4-n-butyl-2,2,6,6-tetramethylpiperidine hydrochloride]	261.25 ×10^−3	824.75 ×10^−3	–
220.8 °C (dec.)	≥ 100 µM	CC1(C)CC(Oc2nsnc2-c2ccccc2)CC(C)(C)N1O.Cl [Compound 44, 1-hydroxy-4-(4-phenyl-1,2,5-thiadiazol-3-yloxy)-2,2,6,6-tetramethylpiperidine hydrochloride]	13.25 ×10^−3	23.00 ×10^−3	–
164.7 °C (dec.)	–	CC1(C)CC(NC(=O)CCCCC2CCSS2)CC(C)(C)N1O.Cl (stereo not shown) [Compound 49, 5-(1,2-dithialan-3-yl)-N-(1-hydroxy-2,2,6,6-tetramethylpiperidin-4-yl)pentanamide hydrochloride]	195.00 ×10^−3	1330.25 ×10^−3	–
–	12 µM	CC1(C)CC(=CC(=O)N2CCN(c3ccccc3)CC2)CC(C)(C)N1O [Compound 56, hydrochloride]	308.75 ×10^−3	1153.00 ×10^−3	–
181 °C	–	COc1cc(CNC2CC(C)(C)N(O)C(C)(C)C2)cc(OC)c1OC.Cl.Cl [Compound 58, N-(3,4,5-trimethoxybenzyl)-1-hydroxy-2,2,6,6-tetramethylpiperidin-4-amine dihydrochloride]	291.50 ×10^−3	1207.00 ×10^−3	–
